Biological target: Envelope glycoprotein gp160 (Human immunodeficiency virus 1, UniProt Q6QLK5)
Test: blockers of envelope-mediated cell fusion – luminescence reporter, SAR follow-up (AID 435029)

Sequence of Envelope glycoprotein gp160 (Q6QLK5 whole entry, the tested form may be a part): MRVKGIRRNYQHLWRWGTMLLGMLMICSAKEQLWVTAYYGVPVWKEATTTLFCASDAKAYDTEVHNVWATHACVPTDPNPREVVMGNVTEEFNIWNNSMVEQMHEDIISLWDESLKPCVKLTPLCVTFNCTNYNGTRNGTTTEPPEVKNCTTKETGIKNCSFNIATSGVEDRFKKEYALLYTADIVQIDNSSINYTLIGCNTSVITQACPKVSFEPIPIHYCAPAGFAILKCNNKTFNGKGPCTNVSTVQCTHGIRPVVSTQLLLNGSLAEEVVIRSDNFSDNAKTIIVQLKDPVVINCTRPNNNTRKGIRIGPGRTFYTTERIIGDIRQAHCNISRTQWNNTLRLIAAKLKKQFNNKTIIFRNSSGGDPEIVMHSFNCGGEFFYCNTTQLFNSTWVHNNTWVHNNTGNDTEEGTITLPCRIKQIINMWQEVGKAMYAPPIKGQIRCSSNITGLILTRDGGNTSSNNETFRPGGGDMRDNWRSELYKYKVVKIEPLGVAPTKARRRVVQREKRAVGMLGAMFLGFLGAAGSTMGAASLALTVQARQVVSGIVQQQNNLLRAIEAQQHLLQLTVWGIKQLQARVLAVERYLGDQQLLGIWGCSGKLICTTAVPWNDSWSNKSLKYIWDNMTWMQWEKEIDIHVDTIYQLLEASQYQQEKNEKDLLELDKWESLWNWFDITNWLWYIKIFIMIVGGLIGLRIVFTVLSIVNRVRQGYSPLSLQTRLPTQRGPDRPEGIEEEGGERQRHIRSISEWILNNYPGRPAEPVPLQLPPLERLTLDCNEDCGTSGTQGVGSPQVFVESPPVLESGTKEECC

Structure (SMILES): Cc1c(Cl)cccc1NS(=O)(=O)c1ccc2c(c1)C1C=CCC1C(c1ccc(C(=O)O)cc1)N2 (centres undefined)
- IC50: 5.4 µM

Structure (SMILES): CS(=O)(=O)C1=NSC2=NC(=O)/C(=C\c3cccn3-c3ccc(Cl)cc3)C(=N)N21
- IC50: 8.8 µM

Structure (SMILES): COc1cc(/C=C2\SC(=O)N(c3ccccc3Cl)C2=O)cc([N+](=O)[O-])c1O
- IC50: 7.5 µM

Structure (SMILES): N#C/C(=C\C1C=CC(=O)C([N+](=O)[O-])=C1)c1nc2ccccc2s1 (centres undefined)
- IC50: 4.65 µM

Structure (SMILES): CCC(Sc1nc2ccsc2c(=O)n1Cc1ccc(C(=O)O)cc1)C(=O)Nc1ccc(C)c(Cl)c1 (centres undefined)
- IC50: 13.2 µM

Structure (SMILES): CS(=O)(=O)C1=NSC2=NC(=O)/C(=C\c3ccc(OS(=O)(=O)c4ccccc4)cc3)C(=N)N21
- IC50: 12.7 µM

Structure (SMILES): CCOc1cc(/C=C2\SC(=O)N(CC(=O)Nc3ccccc3F)C2=O)cc([N+](=O)[O-])c1O
- IC50: 8.3 µM

Structure (SMILES): O=C1Nc2ccc([N+](=O)[O-])cc2C1=NNc1ccccc1C(=O)O [2-[2-(5-nitro-2-oxidanylidene-indol-3-yl)hydrazinyl]benzoic acid]
- IC50: > 100 µM

Structure (SMILES): CCOC(=O)C1=C(C)N=c2sc(=Cc3ccc(OCC(=O)O)cc3)c(=O)n2C1c1ccc(OC(C)C)cc1 (centres undefined) [2-[4-[[6-ethoxycarbonyl-7-methyl-3-oxo-5-(4-propan-2-yloxyphenyl)-5H-[1,3]thiazolo[3,2-a]pyrimidin-2-ylidene]methyl]phenoxy]acetic acid]
- IC50: 4.45 µM

Structure (SMILES): O=c1/c(=C/c2cc([N+](=O)[O-])cc([N+](=O)[O-])c2O)sc2nc3ccccc3n12 [2-[(2-hydroxy-3,5-dinitrophenyl)methylidene]-1-thiazolo[3,2-a]benzimidazolone]
- IC50: 8.6 µM

Structure (SMILES): CCC(C)(C)C1CCc2c(sc(NC(=O)c3ccccc3C(=O)O)c2C#N)C1 (centres undefined) [2-[[3-cyano-6-(2-methylbutan-2-yl)-4,5,6,7-tetrahydro-1-benzothiophen-2-yl]carbamoyl]benzoic acid]
- IC50: 7.3 µM

Structure (SMILES): O=C(O)c1ccccc1C(=O)N(Cc1cccc(Oc2ccc(Cl)cc2)c1)[C@H]1CCCc2ccccc21 [2-[[[3-(4-chlorophenoxy)phenyl]methyl-[(1S)-1,2,3,4-tetrahydronaphthalen-1-yl]amino]-oxomethyl]benzoic acid]
- IC50: 4.1 µM

Structure (SMILES): COc1cc(CN=Nc2ccc(Cl)c(C(=O)O)c2)ccc1OC(=O)c1ccc(F)cc1 [2-chloro-5-[2-[[4-[(4-fluorophenyl)-oxomethoxy]-3-methoxyphenyl]methylidene]hydrazinyl]benzoic acid]
- IC50: 30 µM

Structure (SMILES): CC(C)S(=O)(=O)C1=NSC2=NC(=O)/C(=C\c3ccc(-c4cccc(C(=O)O)c4)o3)C(=N)N21 [3-[5-[(Z)-(5-imino-7-oxo-3-propan-2-ylsulfonyl-[1,2,4]thiadiazolo[4,5-a]pyrimidin-6-ylidene)methyl]furan-2-yl]benzoic acid]
- IC50: 68 µM

Structure (SMILES): O=[N+]([O-])c1cc([N+](=O)[O-])c2oc(-c3ccccc3)c(Br)c2c1O [3-bromanyl-5,7-dinitro-2-phenyl-1-benzofuran-4-ol]
- IC50: 2.5 µM

Structure (SMILES): O=C(O)CCCN1C(=O)/C(=C/c2ccc(-c3nc4ccccc4s3)o2)SC1=S [4-[(5Z)-5-[[5-(1,3-benzothiazol-2-yl)furan-2-yl]methylidene]-4-oxo-2-sulfanylidene-1,3-thiazolidin-3-yl]butanoic acid]
- IC50: 1 µM

Structure (SMILES): CC(C)(C)c1cc(-c2cs/c(=N\c3ccccc3)n2Cc2ccc(C(=O)O)cc2)cc(C(C)(C)C)c1O [4-[[4-(3,5-ditert-butyl-4-oxidanyl-phenyl)-2-phenylazanyl-1,3-thiazol-3-ium-3-yl]methyl]benzoic acid;bromide]
- IC50: 3.5 µM

Structure (SMILES): Cc1ccc(S(=O)(=O)Oc2ccc(/C=C3/C(=N)N4C(=NC3=O)SN=C4S(C)(=O)=O)cc2)cc1 [4-methylbenzenesulfonic acid [4-[(Z)-(5-imino-3-methylsulfonyl-7-oxo-[1,2,4]thiadiazolo[4,5-a]pyrimidin-6-ylidene)methyl]phenyl] ester]
- IC50: 8 µM

Structure (SMILES): O=C1NC(=S)N(c2ccc(F)cc2)C(=O)C1=Cc1ccco1 [(5E)-1-(4-fluorophenyl)-5-(2-furanylmethylidene)-2-sulfanylidene-1,3-diazinane-4,6-dione]
- IC50: 20 µM

Structure (SMILES): Cc1cc(C)cc(-n2cccc2/C=C2/C(=N)N3C(=NC2=O)SN=C3S(C)(=O)=O)c1 [(6Z)-5-azanylidene-6-[[1-(3,5-dimethylphenyl)pyrrol-2-yl]methylidene]-3-methylsulfonyl-[1,2,4]thiadiazolo[4,5-a]pyrimidin-7-one]
- IC50: 4.7 µM

Structure (SMILES): CC(C)S(=O)(=O)C1=NSC2=NC(=O)/C(=C\c3ccc(-c4ccccc4)o3)C(=N)N21 [(6Z)-5-imino-6-[(5-phenyl-2-furanyl)methylidene]-3-propan-2-ylsulfonyl-[1,2,4]thiadiazolo[4,5-a]pyrimidin-7-one]
- IC50: 3.2 µM

Structure (SMILES): CSc1nnc(-c2ccccc2N=Cc2c(C)[nH]n(-c3ccc4ccccc4c3)c2=O)c(=O)[nH]1 [MLS000540062]
- IC50: 16.5 µM

Structure (SMILES): Cc1ccc(-n2cccc2/C=C2/C(=N)N3C(=NC2=O)SN=C3S(C)(=O)=O)cc1Cl [MLS000583163]
- IC50: 4.6 µM

Structure (SMILES): CC1(C)CC(=O)C2=C(C1)c1c(ccc3ccccc13)NC2c1cc([N+](=O)[O-])cc([N+](=O)[O-])c1O (centres undefined) [MLS000716265]
- IC50: 2.4 µM

Structure (SMILES): Cc1c2c(=O)n(-c3nc4ccccc4s3)[nH]c2cc(=O)n1Cc1ccccc1 [MLS000762993]
- IC50: 6.58 µM

Structure (SMILES): COc1ccccc1NS(=O)(=O)c1cccc(-n2c(O)c(C=Nc3ccccc3C(=O)O)c3ccccc3c2=O)c1 [MLS000776209]
- IC50: 2.3 µM

Structure (SMILES): COc1ccc(OC)c(N2C(=O)C(=Cc3ccco3)C(=O)NC2=S)c1 [MLS001197216]
- IC50: 15 µM

Structure (SMILES): COc1cc(/C=N/NS(=O)(=O)c2ccc3ccccc3c2)ccc1OCc1ccc(C(=O)O)cc1 [MLS-0298745.0001]
- IC50: 31 µM

Structure (SMILES): O=C(O)c1cc(N=NCc2ccc(-c3ccccc3)cc2)ccc1Cl [MLS-0319671.0001]
- IC50: 10 µM

Structure (SMILES): N#C/C(=C\c1ccc(OCc2ccc(Cl)cc2)cc1)C(=O)Nc1cccc(C(=O)O)c1 [MLS-0334991.0001]
- IC50: > 100 µM

Structure (SMILES): CCS(=O)(=O)C1=NSC2=NC(=O)/C(=C\c3ccc(OS(=O)(=O)c4ccccc4)cc3)C(=N)N21 [MLS-0362442.0001]
- IC50: 8.4 µM

Structure (SMILES): CC(C)NC(=O)c1sc(=S)n2c1[nH]c(=O)c1ccc(C(=O)NCCc3ccc(Cl)cc3)cc12 [N8-[2-(4-chlorophenyl)ethyl]-5-oxidanylidene-N3-propan-2-yl-1-sulfanylidene-4H-[1,3]thiazolo[3,4-a]quinazoline-3,8-dicarboxamide]
- IC50: 11.1 µM

Structure (SMILES): O=C1NC(=S)N(C2CCCCC2)C(=O)C1=CNNC(=O)c1ccccc1O [N'-[(E)-(1-cyclohexyl-4,6-dioxo-2-sulfanylidene-1,3-diazinan-5-ylidene)methyl]-2-hydroxybenzohydrazide]
- IC50: 11.5 µM

Structure (SMILES): O=C1NC(=S)N(c2ccc(F)cc2)C(=O)C1=Cc1ccoc1 [SMR000270574]
- IC50: 11.3 µM

Structure (SMILES): Cc1ccc(-n2c(O)c(C=Nc3ccccc3-c3n[nH]c(=S)[nH]c3=O)c3ccccc3c2=O)c(C)c1 [SMR000370443]
- IC50: 9.8 µM

Structure (SMILES): COC(=O)c1sc(-c2ccc(C(C)(C)C)cc2)cc1NC(=O)c1ccccc1C(=O)O [SMR000456098]
- IC50: 1.5 µM

Structure (SMILES): COc1cc(CN=Nc2ccc(Cl)c(C(=O)O)c2)ccc1OC(=O)c1ccccc1F [SMR000589905]
- IC50: 68 µM

Structure (SMILES): COc1ccc(C(=O)Oc2ccc(CN=Nc3ccc(Cl)c(C(=O)O)c3)cc2OC)cc1 [SMR000589907]
- IC50: 13 µM

Structure (SMILES): CCOC(=O)c1sc(N2C(=O)C(=O)C(C(=O)c3ccc(C)o3)C2c2cccc([N+](=O)[O-])c2)nc1C (centres undefined) [ethyl 4-methyl-2-[3-(5-methylfuran-2-yl)carbonyl-2-(3-nitrophenyl)-4-oxidanyl-5-oxidanylidene-2H-pyrrol-1-yl]-1,3-thiazole-5-carboxylate]
- IC50: 5.1 µM
